Experimental data as given in US12077607B2, “Functional and therapeutic effects of PAR4 cleavage by cathepsin G” (UNIVERSITY OF UTAH RESEARCH FOUNDATION, priority 2021, dated 2024).
Entries after “also recorded” stand apart in the source; their conditions may differ.

Legend:
dog washed platelets = test: Platelet aggregation of dog washed platelets; format: cell-based; settings: 1 U/mL human thrombin, 1 μM human CatG or 1 mM RA-11mer
Source text: Animal studies. Mouse platelets were isolated as previously described from C57BL/6 mice (Denorme et al., Blood. 2020; 135(6):429-440). Dog platelets were isolated from whole blood drawn into ACD using a similar isolation procedure as for human platelets. All animal studies were approved by the University of Utah Institutional Animal Care and Use Committee (18-10012).
Platelet and neutrophil isolation. Platelets and neutrophils were isolated as previously described (Yost et al., J Clin Invest. 2016; 126(10):3783-3798). Platelet isolation from dogs, rats and mice was approved by the IACUC. Platelet activation and aggregation were performed as previously described (Manne et al., Blood. 2020; 136(11): 1317-1329).
Platelet isolation, aggregation, and activation. Human washed platelets were prepared and resuspended in Tyrode's Buffer at 2×10^8/mL as described (Edelstein et al., Nat Med. 2013; 19(12):1609-1616). For human and dog platelet comparisons, platelets were prepared using a modified human platelet protocol with final concentrations of […] (Cayman Chemical, Ann Arbor, MI, USA) used during centrifugation steps. Centrifugations after Tyrode's washes was decreased to 1,250×g as described in Cremer et al., PLOS One. 2019; 14(11): e0224891. Platelet aggregation was measured under stirring conditions at 37° C. using a PAP-8E aggregometer after treatment with the following agonists: arachidonic acid (Bio/Data Corporation, Horsham, PA, USA), cathepsin G, elastase, proteinase 3 (Athens Research Group), α-thrombin (Sigma, St. Louis, MO, USA), PAR-1 peptide (SFLLRN) (GL Biochem, China). P-selectin and PAC-1 were measured as previously described (Yee et al., J Thromb Haemost. 2006; 4(9):2043-2050; Tourdot et al., Arterioscler Thromb Vasc Biol. 2014; 34(12):2644-2650).

PAR4-B (SEQ ID NO: 7) = molecular target: T1, PAR4-B (SEQ ID NO: 7) (Homo sapiens, UniProt Q96RI0); test: PAR4 peptide cleavage analysis by LC-MS/MS, PAR4-B; format: biochemical; settings: thrombin 100 U/mL or 100 nM, CatG 400 nM, 37° C.
T1 construct: purchased BIOMATIK (Wilmington, DE, USA); host or cells: chemical synthesis
Protocol: PAR-4 Peptide and Cleavage Analysis. PAR4 synthetic peptides were incubated with protease, snapped frozen, and sent for mass spectrometry analysis. PAR-4B ([…]; SEQ ID NO: 7) and PAR-4C ([…]; SEQ ID NO: 8) were synthesized by BIOMATIK (Wilmington, DE, USA). PAR4-B and PAR4-C were incubated with vehicle, thrombin (100 nM) or cathepsin G (400 nM) at 37° C. for 15 minutes to an hour depending on the experimental condition. After digestion with the indicated protease, reactions were snapped frozen and sent to the University of Arizona, Analytical and Biological Mass Spectrometry Core Facility (Tucson, Arizona) for analysis. LC-MS/MS analysis was done on a Q Exactive Plus mass spectrometer (Thermo Fisher Scientific, San Jose, CA) equipped with an EASY-Spray nanoESI source. Peptides (500 ng) were injected onto an Acclaim Pepmap 100 trap column (75 micron ID x 2 cm, Thermo Scientific), washed for 10 min at 3% mobile phase B (acetonitrile, 0.1% formic acid, mobile phase A consisting of water and 0.1% formic acid) then eluted onto an Acclaim PepMap RSLC analytical column (75 micron ID x 25 cm, Thermo Scientific using a 3-20% gradient of B over 40 min, 20-50% solvent B over 5 min, 50-95% of solvent B over 5 min, then a hold of solvent 95% B for 10 min, and finally a return to 3% solvent B for 1 min, then a hold at 3% B for 10 min. Flow rates were 300 nL/min using a Dionex Ultimate 3000 RSLCnano System (Thermo Scientific). […] The peptide identification results were further analyzed with Scaffold Q+S v 4.8.7 (Proteome Software Inc., Portland OR), a program that relies on various search engine results (i.e.: Sequest, X!Tandem, MASCOT) and which uses Bayesian statistics to reliably identify more spectra9.

T1 sequence (Q96RI0 36-58 limits assumed): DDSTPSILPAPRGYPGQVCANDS

Row | cleavage of PAR4-B peptide (PAR4-B (SEQ ID NO: 7); listed as Thrombin) | Substance | platelet aggregation, species comparison: dogs (dog washed platelets) | cleavage of PAR4-B peptide (PAR4-B (SEQ ID NO: 7))
1 | proteolyzed virtually all | thrombin | induced platelet aggregation | cleaved by thrombin between amino acids Arg47 and Gly48
2 |  | CatG: serine protease cathepsin G released by activated neutrophils | induced platelet aggregation; also recorded: not as responsive | largely intact; also recorded: little cleavage
